Source: publication PMC8113459, “Selective inhibition of cullin 3 neddylation through covalent targeting DCN1 protects mice from acetaminophen-induced liver toxicity” (Nature Communications, 2021)

How the values were obtained:
[1] = system: KEAP1 and p62 proteins; experiment: Western blot, KEAP1 and p62 in U2OS and THLE2 cells; format: cell-based, human; settings: 6 h
Procedure: (§1) Western blotting was performed as described previously. Treated cells were lysed by RIPA buffer supplemented with protease inhibitor. The expression level of indicated proteins was examined by immunoblotting analysis and GAPDH was used as the loading control. Antibodies were purchased commercially: cullin 1 (sc-17775, 1:500 dilution) and cullin 2 (sc-166506, 1:500 dilution) from Santa Cruz Biotech (Santa Cruz, CA); cullin 4A (PA5-14542, 1:1000 dilution), cullin 4B (PA5-50647, 1:1000 dilution), and DCN3 (DCUN1D3, PA5-44000, 1:1000 dilution) from Thermo Fisher Scientific (Wayne, MI); cullin 3 (2759, 1:1000), NRF2 (12721, 1:1000 dilution), HO-1 (70081, 1:1000 dilution), and Bim (2819, 1:1000 dilution) from Cell Signaling Technology (Boston, MA); DCN1 (GWB-E3D700, 1:1000 dilution) from GenWay Biotech (San Diego, CA); and cullin 5 (A302-173A, 1:500 dilution) from Bethyl Labs (Montgomery, TX). Results are representative of two independent experiments.
Supplementary Figure 22. Western blotting analysis of Keap1 and p62 in U2OS cells (a) and […]
The cells were treated with compounds as indicated for 6 h. Treated cells were harvested and lysed with RIPA buffer. The expression of P62 and Keap1 were examined by western blotting analysis. Antibody information:
Keap1 (cst, #8047), P62 (cst,#5114). GAPDH was used as a loading control. Representative images of two independent experiments are shown. […]

[2] = target: T1, DCN1 (Homo sapiens, UniProt Q96GG9); experiment: Cocrystal structures of lyso-DCN1-inhibitor complexes; parameters: to DCN1 residues 62–251; His6 (N); TEV cleavage site (N); lysozyme residues 1–164 with C54T, C97A, A146T, D127A, R154A (fusion partner, N-terminal of DCN1); made in house; host or cells: Rosetta 2 cells (E. coli)
Procedure: Lysozyme–DCN1 gene was synthesized fusing lysozyme residues 1–164, containing mutations (C54T, C97A, A146T, D127A, and R154A), to DCN1 residues 62–251. Ligation independent cloning was utilized to clone the fused gene into an N-terminal His6–TEV expression vector. The clone was transformed into Rosetta 2 cells, grown in terrific broth at 37 °C, and expressed overnight with 0.4 mM isopropyl β-D-1-thiogalactopyranoside at 20 °C. Pelleted cells were freeze-thawed and lysed in 25 mM HEPES, pH 7.5, 150 mM NaCl, 0.1% β-mercaptoethanol and protease inhibitors. Cellular debris was removed via centrifugation. The supernatant was loaded onto a Ni-NTA (Qiagen) column at 4 °C. The column was washed with 25 mM HEPES, pH 7.5, 150 mM NaCl, and 20 mM imidazole, then protein eluted with buffer containing 300 mM imidazole. The eluate was applied to a Superdex 200 (GE Healthcare) equilibrated with 25 mM HEPES, pH 7.5, 200 mM NaCl, and 1 mM DTT. The protein was judged to be greater than 95% pure by SDS-PAGE, concentrated to 3.5 mg/mL and stored at −80 °C. Yield was 450 mg/L of expressed media.
Lyso–DCN1 protein was thawed and concentrated to 9.9 mg/mL in 25 mM HEPES, pH 7.5, 200 mM NaCl, and 1 mM DTT. Each compound was incubated with protein in a 1:1.2 protein to compound molar ratio overnight at 4 °C, then spun and setup in sitting drop vapor diffusion experiments. Crystallization drops contained 2 µL of protein–inhibitor solution and 1 µL of well solution. Crystals grew at 20 °C with well solution containing 28–33% PEG 3350 and 200 mM ammonium formate. Crystals were cryoprotected in 25 mM HEPES, pH 7.5, 200 mM NaCl, 30% PEG 3350, and 1 mM DTT.
Diffraction data were collected at a wavelength of 0.9786 Å on the APS LS-CAT 21-ID-G beamline at Argonne National Laboratory. Data were processed using HKL2000[44] and solved via molecular replacement using molrep[45] with two independent search models (lysozyme and DCN1) from PDB ID 5V83. The structures were iteratively fit and refined using Coot[46] and Buster[47]. […]
Target sequence in this assay (Q96GG9 62-251): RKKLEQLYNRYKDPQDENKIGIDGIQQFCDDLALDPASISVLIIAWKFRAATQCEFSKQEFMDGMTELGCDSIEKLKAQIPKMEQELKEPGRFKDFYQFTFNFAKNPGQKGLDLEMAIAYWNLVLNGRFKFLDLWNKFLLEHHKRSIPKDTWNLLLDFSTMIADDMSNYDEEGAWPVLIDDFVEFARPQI

[3] = system: p21, BIM and CDT1 proteins; experiment: Western blot, CRL1 and CRL4A substrates; format: cell-based, human
Procedure: as §1

[4] = target: T1, DCN1; experiment: Intact-protein mass spectrometric analysis of covalent complex formation, Method A; format: binding; settings: for Percentage of the formation of covalent complex with DCN1 protein: 37 °C
Source text: MassHunter Qualitative Analysis software (Agilent) was used to analyze the data. Intact protein masses were obtained using the maximum entropy deconvolution algorithm. The mass spectrometry data in Supplementary Figs. 1–11 were generated by Method A.
Target sequence in this assay (Q96GG9 58-259 limits assumed): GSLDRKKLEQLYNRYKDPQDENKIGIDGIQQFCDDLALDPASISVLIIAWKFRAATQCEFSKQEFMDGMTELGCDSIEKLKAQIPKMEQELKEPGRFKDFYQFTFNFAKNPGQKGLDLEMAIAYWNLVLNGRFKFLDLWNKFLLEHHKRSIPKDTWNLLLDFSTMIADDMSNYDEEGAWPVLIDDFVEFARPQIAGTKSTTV

[5] = 10 min incubation, 1.2-fold excess inhibitor

Structure (SMILES) | effect on protein levels of KEAP1 and p62 [1] | covalent bond to Cys115 of DCN1 in the cocrystal structure [2] | effect on the levels of p21, BIM and CDT1 proteins ([3]; concentrations up to 1000 nM) | covalent complex formation / reaction kinetics with DCN1 protein (in words) [4] | Percentage of the formation of covalent complex with DCN1 protein [4, 5] [%] | Percentage of the formation of covalent complex with DCN1 protein ([4]; 60 min (1 h) incubation) [%] | Percentage of the formation of covalent complex with DCN1 protein ([4]; 180 min (3 h) incubation) [%] | effect on protein level of CDT1 ([3]; THLE2, Fig. 6b)
C=C(CN1CCOCC1)C(=O)NC[C@@H](NC(=O)[C@H](Cc1nc2ccc(C(C)C)cc2s1)NC(=O)CC)C1CCCCC1 [DI-1548] | no obvious effect | confirmed the covalent nature of these complexes | no effect | very fast covalent complex formation | 100 | 100 | 100 | 
C=C(CN(C)C)C(=O)NC[C@@H](NC(=O)[C@H](Cc1nc2ccc(C(C)C)cc2s1)NC(=O)CC)C1CCCCC1 [DI-1859] | no obvious effect | confirmed the covalent nature of these complexes |  | very fast covalent complex formation | 100 | 100 | 100 | no effect
